Source: article PMC8667043, “First-in-Class Inhibitors of the Ribosomal Oxygenase MINA53” (Journal of Medicinal Chemistry, 2021)

Assays:
KDM5 = test: Immunofluorescence of histone methyl mark H3K4me3 in U-87MG cells; assay type: cell-based, human; conditions: 50 μM, 48 h
Experimental: (§1) For immunofluorescence (IF) analysis, 50 × 10^4 U-87MG cells were grown on sterile coverslips. Twenty-four hours after plating, the cells were treated with the different compounds (IOX-1 at 100 μM, GSK-J4 at 10 μM, CPI-455 at 25 μM, and both MINA53 inhibitors 9 and 10 at 50 μM) for 48 h. IF staining for different trimethylated lysine residues of histone H3 ([…]) were carried out on PFA-fixed cells blocked with 20% goat serum in PBS (1 h, RT) and incubated overnight at 4 °C with primary rabbit polyclonal antibodies against H3K4me3 (Cell Signaling, C42D8, 1:400), H3K9me3 (Cell Signaling, D4W1U, 1:400), and H3K27me3 (Cell Signaling, C36B11, 1:400). Primary antibodies were detected using rabbit anti-IgG secondary antibodies conjugated with either Cy3 (Jackson Immunoresearch 711-165-152). DNA was stained using 0.05 μg/mL 4′,6-diamidino-2-phenylindole (DAPI), and after washing, the coverslips were mounted in Vectashield mounting media. […]
(§2) For quantification of fluorescence intensity signals, images of untreated or treated cells were analyzed and processed using open-source Cell Profiler 4.1.3 image analysis software (https://cellprofiler.org/) to measure fluorescence-integrated intensity values for antibody-binding relating to individual cells. […]

HA-tagged NO66 = target: T1, HA-tagged NO66 (Homo sapiens, UniProt Q9H6W3); test: Substrate trapping by anti-HA immunoprecipitation (RPL8); assay type: cell-based; conditions: HEK293T cells; 100 μM, 18 h
T1 construct: expressed in transfected cells; host or cells: HEK293T (transient, pEF6 vector)
Experimental: Proteins were transferred onto nitrocellulose or PVDF membranes and incubated with rabbit γ-H2AX (#9718, Cell Signaling Technologies, MA) anti-GAPDH (Sc47724, Santa Cruz Biotechnology, Santa Cruz, CA), rabbit anti-RPL27A (Abcam, ab74731), goat anti-RPL8 (Abcam, ab63941), horseradish peroxidase (HRP)-conjugated anti-HA (Roche, 12013819001), and HRP-conjugated anti-β-actin (Abcam, ab-49900).
For immunoprecipitation, the cells were harvested on ice and lysed by rotation for 1 h at 4 °C in JIES buffer. The cell debris was subsequently pelleted by centrifugation (10 min at 21 910g at 4 °C), and the supernatant was incubated overnight at 4 °C with Pierce anti-HA agarose beads (Thermo Scientific, 26181). The next day, the beads were washed 6 times with JIES buffer before the immunoprecipitates were eluted for 15 min at 1400 rpm at room temperature using 1 mg/mL HA peptide (Thermo Scientific, 26184) dissolved in JIES buffer. The eluted samples were then prepared in 1× Laemmli loading buffer (6x: 125 mM Tris-HCl [pH 6.8], 6% (w/v) SDS, 50% (v/v) glycerol, 225 mM dithiothreitol (DTT), and 0.1% (w/v) bromophenol blue) and boiled for 5 min for detection by western blot.
Plasmid DNA transfections were performed using a FuGENE 6 transfection reagent (Promega, E2691). […]

KDM4 = test: Immunofluorescence of histone methyl mark H3K9me3 in U-87MG cells; assay type: cell-based, human; conditions: 50 μM, 48 h
Experimental: as §1, §2

KDM6 = test: Immunofluorescence of histone methyl mark H3K27me3 in U-87MG cells; assay type: cell-based, human; conditions: 50 μM, 48 h
Experimental: as §1, §2

T1 sequence (Q9H6W3 whole entry): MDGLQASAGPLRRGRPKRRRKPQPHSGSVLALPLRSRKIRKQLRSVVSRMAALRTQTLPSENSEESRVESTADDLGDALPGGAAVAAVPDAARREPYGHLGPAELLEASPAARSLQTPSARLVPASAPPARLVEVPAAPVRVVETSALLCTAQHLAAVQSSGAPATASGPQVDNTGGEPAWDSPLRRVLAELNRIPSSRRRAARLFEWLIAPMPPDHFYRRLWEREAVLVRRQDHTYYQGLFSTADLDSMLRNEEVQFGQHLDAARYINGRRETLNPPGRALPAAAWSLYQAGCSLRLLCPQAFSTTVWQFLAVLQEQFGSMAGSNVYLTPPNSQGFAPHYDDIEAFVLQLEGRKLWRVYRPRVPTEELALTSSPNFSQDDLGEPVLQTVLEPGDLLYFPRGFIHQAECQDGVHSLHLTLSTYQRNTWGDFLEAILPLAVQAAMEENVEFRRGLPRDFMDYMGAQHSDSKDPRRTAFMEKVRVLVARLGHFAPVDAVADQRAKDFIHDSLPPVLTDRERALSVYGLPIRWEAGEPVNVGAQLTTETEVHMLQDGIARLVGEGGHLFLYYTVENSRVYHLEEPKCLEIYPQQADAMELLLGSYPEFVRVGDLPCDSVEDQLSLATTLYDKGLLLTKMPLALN

Row | Structure (SMILES) | level of histone methyl mark H3K4me3 (KDM5 selectivity) (KDM5) | trapping of RPL8 with HA-tagged NO66 (HA-tagged NO66) | level of histone methyl mark H3K9me3 (KDM4 selectivity) (KDM4) | level of histone methyl mark H3K27me3 (KDM6 selectivity) (KDM6)
1 | O=C(O)c1cnc(SCCc2ccccc2)[nH]c1=O [compound 9, 2-(Phenethylthio)-3,4-dihydro-4-oxopyrimidine-5-carboxylic Acid] | did not observe any evidence for an increase | did not observe evidence | did not observe any evidence for an increase | did not observe any evidence for an increase
2 | O=C(O)c1cnc(SCCCc2ccccc2)[nH]c1=O [compound 10, 2-((3-Phenylpropyl)thio)-3,4-dihydro-4-oxopyrimidine-5-carboxylic Acid] | did not observe any evidence for an increase | did not observe evidence | did not observe any evidence for an increase | did not observe any evidence for an increase
